Earlier results, collected in US20110178167A1, “METHOD FOR INHIBITING ACTIVITY AND/OR EXPRESSION OF MATRIX METALLOPROTEINASE, INHIBITING PHOSPHORYLATION OF MITOGEN-ACTIVATED PROTEIN KINASE, AND/OR PROMOTING EXPRESSION OF COLLAGEN USING TERMINALIA CATAPPA LEAF EXTRACT” (priority 2010, published 2011).

Tested on: matrix metalloproteinase-1
Conditions: related art

SMILES | expression of matrix metalloproteinase-1
O=c1cc(-c2ccc(O)c(-c3c(O)c(O)c(O)c4c(=O)cc(-c5ccc(O)cc5)oc34)c2)oc2cc(O)cc(O)c12 [sumaflavone] | inhibited
C[C@@H]1CC[C@]2(C(=O)O[C@@H]3O[C@H](CO)[C@@H](O)[C@H](O)[C@H]3O)CC[C@]3(C)C(=CC[C@@H]4[C@@]5(C)CC[C@H](O[C@@H]6OC[C@H](O)[C@H](O)[C@H]6O)C(C)(C)[C@@H]5CC[C@]43C)[C@@H]2[C@]1(C)O [ziyuglycoside-I] | inhibited
